Key:
Assay in all cases: relative viability (nuclei count vs DMSO), 5 days (fraction); higher = more cells survive
AT9283 + Foretinib = compound: O=C(Nc1c[nH]nc1-c1nc2ccc(CN3CCOCC3)cc2[nH]1)NC1CC1 [AT9283] + COc1cc2c(Oc3ccc(NC(=O)C4(C(=O)Nc5ccc(F)cc5)CC4)cc3F)ccnc2cc1OCCCN1CCOCC1 [Foretinib] (partner 0.25 µM)
Outline: (§1)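 Five library-drug doses in √10 steps were combined with a fixed anchor-drug dose, or a single drug was given alone, by pin tool to lung cancer cell lines in 1536-well plates the day after seeding. Nuclei were stained and counted after 5 days. Relative viability is the nuclei count in treated wells over that in vehicle wells, taken as the median of duplicate plates.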

Erlotinib + Luminespib = compound: C#Cc1cccc(Nc2ncnc3cc(OCCOC)c(OCCOC)cc23)c1 [Erlotinib] + CCNC(=O)c1noc(-c2cc(C(C)C)c(O)cc2O)c1-c1ccc(CN2CCOCC2)cc1 [Luminespib] (partner 0.01 µM)
Outline: as §1

Erlotinib + Olaparib = compound: C#Cc1cccc(Nc2ncnc3cc(OCCOC)c(OCCOC)cc23)c1 [Erlotinib] + O=C(c1cc(Cc2n[nH]c(=O)c3ccccc23)ccc1F)N1CCN(C(=O)C2CC2)CC1 [Olaparib] (partner 8 µM)
Outline: as §1

Erlotinib + OSI-027 = compound: C#Cc1cccc(Nc2ncnc3cc(OCCOC)c(OCCOC)cc23)c1 [Erlotinib] + COc1cccc2cc(-c3nc([C@H]4CC[C@H](C(=O)O)CC4)n4ncnc(N)c34)[nH]c12 [OSI-027] (partner 0.5 µM)
Outline: as §1

AT9283 + Tozasertib = compound: O=C(Nc1c[nH]nc1-c1nc2ccc(CN3CCOCC3)cc2[nH]1)NC1CC1 [AT9283] + Cc1cc(Nc2cc(N3CCN(C)CC3)nc(Sc3ccc(NC(=O)C4CC4)cc3)n2)n[nH]1 [Tozasertib] (partner 0.1 µM)
Outline: as §1

For LOU-NH91, the relative viability (AT9283 + Foretinib; first compound 0.003 µM) was 0.913, the relative viability (AT9283 + Foretinib; first compound 0.03 µM) was 0.887 and the relative viability (AT9283 + Foretinib; first compound 0.09487 µM) was 0.548. The relative viability (AT9283 + Foretinib; first compound 0.3 µM) was 0.375, the relative viability (Erlotinib + Luminespib; first compound 0.02 µM) was 0.412 and the relative viability (Erlotinib + Luminespib; first compound 0.2 µM) was 0.297. The relative viability (Erlotinib + Luminespib; first compound 0.6325 µM) was 0.364, the relative viability (Erlotinib + Luminespib; first compound 2 µM) was 0.31 and the relative viability (Erlotinib + Olaparib; first compound 0.02 µM) was 0.733. For the same cell line, the relative viability (Erlotinib + Olaparib; first compound 0.2 µM) was 0.619, the relative viability (Erlotinib + Olaparib; first compound 0.6325 µM) was 0.725 and the relative viability (Erlotinib + Olaparib; first compound 2 µM) was 0.624. It also gave a relative viability (Erlotinib + OSI-027; first compound 0.02 µM) of 0.506, a relative viability (Erlotinib + OSI-027; first compound 0.2 µM) of 0.47 and a relative viability (Erlotinib + OSI-027; first compound 0.6325 µM) of 0.473. For the same cell line, the relative viability (Erlotinib + OSI-027; first compound 2 µM) was 0.43, the relative viability (AT9283 + Tozasertib; first compound 0.003 µM) was 0.61 and the relative viability (AT9283 + Tozasertib; first compound 0.03 µM) was 0.391. For the same cell line, the relative viability (AT9283 + Tozasertib; first compound 0.09487 µM) was 0.373 and the relative viability (AT9283 + Tozasertib; first compound 0.3 µM) was 0.388.
NCI-H522 showed a relative viability (Erlotinib + Luminespib; first compound 0.02 µM) of 1.16, a relative viability (Erlotinib + Luminespib; first compound 0.2 µM) of 0.954 and a relative viability (Erlotinib + Luminespib; first compound 0.6325 µM) of 1.15. It also gave a relative viability (Erlotinib + Luminespib; first compound 2 µM) of 0.965, a relative viability (Erlotinib + Olaparib; first compound 0.02 µM) of 0.614 and a relative viability (Erlotinib + Olaparib; first compound 0.2 µM) of 0.553. For the same cell line, the relative viability (Erlotinib + Olaparib; first compound 0.6325 µM) was 0.61, the relative viability (Erlotinib + Olaparib; first compound 2 µM) was 0.422 and the relative viability (Erlotinib + OSI-027; first compound 0.02 µM) was 0.749. The relative viability (Erlotinib + OSI-027; first compound 0.2 µM) was 0.672, the relative viability (Erlotinib + OSI-027; first compound 0.6325 µM) was 0.816 and the relative viability (Erlotinib + OSI-027; first compound 2 µM) was 0.66. The relative viability (AT9283 + Tozasertib; first compound 0.003 µM) was 0.545, the relative viability (AT9283 + Tozasertib; first compound 0.03 µM) was 0.576 and the relative viability (AT9283 + Tozasertib; first compound 0.09487 µM) was 0.56. For the same cell line, the relative viability (AT9283 + Tozasertib; first compound 0.3 µM) was 0.557.
A549 gave a relative viability (AT9283 + Foretinib; first compound 0.003 µM) of 0.87, a relative viability (AT9283 + Foretinib; first compound 0.03 µM) of 0.118 and a relative viability (AT9283 + Foretinib; first compound 0.09487 µM) of 0.131. The relative viability (AT9283 + Foretinib; first compound 0.3 µM) was 0.0419, the relative viability (Erlotinib + Olaparib; first compound 0.02 µM) was 0.345 and the relative viability (Erlotinib + Olaparib; first compound 0.2 µM) was 0.303. For the same cell line, the relative viability (Erlotinib + Olaparib; first compound 0.6325 µM) was 0.332 and the relative viability (Erlotinib + Olaparib; first compound 2 µM) was 0.269.
Calu-6 was tested, and the relative viability (AT9283 + Foretinib; first compound 0.003 µM) was 0.728, the relative viability (AT9283 + Foretinib; first compound 0.03 µM) was 0.203 and the relative viability (AT9283 + Foretinib; first compound 0.09487 µM) was 0.214. The relative viability (AT9283 + Foretinib; first compound 0.3 µM) was 0.24, the relative viability (Erlotinib + Olaparib; first compound 0.02 µM) was 0.602 and the relative viability (Erlotinib + Olaparib; first compound 0.2 µM) was 0.546. For the same cell line, the relative viability (Erlotinib + Olaparib; first compound 0.6325 µM) was 0.552 and the relative viability (Erlotinib + Olaparib; first compound 2 µM) was 0.519.
EBC-1 was tested, and the relative viability (AT9283 + Foretinib; first compound 0.003 µM) was 0.107, the relative viability (AT9283 + Foretinib; first compound 0.03 µM) was 0.0785 and the relative viability (AT9283 + Foretinib; first compound 0.09487 µM) was 0.0877. For the same cell line, the relative viability (AT9283 + Foretinib; first compound 0.3 µM) was 0.075, the relative viability (Erlotinib + Olaparib; first compound 0.02 µM) was 0.724 and the relative viability (Erlotinib + Olaparib; first compound 0.2 µM) was 0.75. For the same cell line, the relative viability (Erlotinib + Olaparib; first compound 0.6325 µM) was 0.675.
HCC-366 gave a relative viability (AT9283 + Foretinib; first compound 0.003 µM) of 0.962, a relative viability (AT9283 + Foretinib; first compound 0.03 µM) of 0.881 and a relative viability (AT9283 + Foretinib; first compound 0.09487 µM) of 0.0841. The relative viability (AT9283 + Foretinib; first compound 0.3 µM) was 0.0697, the relative viability (Erlotinib + Olaparib; first compound 0.02 µM) was 0.331 and the relative viability (Erlotinib + Olaparib; first compound 0.2 µM) was 0.359. The relative viability (Erlotinib + Olaparib; first compound 0.6325 µM) was 0.353, the relative viability (Erlotinib + Olaparib; first compound 2 µM) was 0.242 and the relative viability (Erlotinib + OSI-027; first compound 0.02 µM) was 0.969. The relative viability (Erlotinib + OSI-027; first compound 0.2 µM) was 0.805, the relative viability (Erlotinib + OSI-027; first compound 0.6325 µM) was 0.468 and the relative viability (Erlotinib + OSI-027; first compound 2 µM) was 0.438. It also gave a relative viability (AT9283 + Tozasertib; first compound 0.003 µM) of 0.127, a relative viability (AT9283 + Tozasertib; first compound 0.03 µM) of 0.438 and a relative viability (AT9283 + Tozasertib; first compound 0.09487 µM) of 0.0615. The relative viability (AT9283 + Tozasertib; first compound 0.3 µM) was 0.0586.
With NCI-H1623 the relative viability (AT9283 + Foretinib; first compound 0.003 µM) was 0.91, the relative viability (AT9283 + Foretinib; first compound 0.03 µM) was 0.837 and the relative viability (AT9283 + Foretinib; first compound 0.09487 µM) was 0.612. The relative viability (AT9283 + Foretinib; first compound 0.3 µM) was 0.487, the relative viability (Erlotinib + Luminespib; first compound 0.02 µM) was 0.414 and the relative viability (Erlotinib + Luminespib; first compound 0.2 µM) was 0.425. It also gave a relative viability (Erlotinib + Luminespib; first compound 0.6325 µM) of 0.352, a relative viability (Erlotinib + Luminespib; first compound 2 µM) of 0.336 and a relative viability (Erlotinib + OSI-027; first compound 0.02 µM) of 0.398. It also gave a relative viability (Erlotinib + OSI-027; first compound 0.2 µM) of 0.366, a relative viability (Erlotinib + OSI-027; first compound 0.6325 µM) of 0.297 and a relative viability (Erlotinib + OSI-027; first compound 2 µM) of 0.256. The relative viability (AT9283 + Tozasertib; first compound 0.003 µM) was 0.411, the relative viability (AT9283 + Tozasertib; first compound 0.03 µM) was 0.408 and the relative viability (AT9283 + Tozasertib; first compound 0.09487 µM) was 0.357. The relative viability (AT9283 + Tozasertib; first compound 0.3 µM) was 0.389.
In the case of HCC-44, the relative viability (Erlotinib + Luminespib; first compound 0.02 µM) is reported as 0.912, the relative viability (Erlotinib + Luminespib; first compound 0.2 µM) is reported as 1.02 and the relative viability (Erlotinib + Luminespib; first compound 0.6325 µM) is reported as 1.62. For the same cell line, the relative viability (Erlotinib + Luminespib; first compound 2 µM) was 1.03, the relative viability (Erlotinib + Olaparib; first compound 0.02 µM) was 0.94 and the relative viability (Erlotinib + Olaparib; first compound 0.2 µM) was 0.984. The relative viability (Erlotinib + Olaparib; first compound 0.6325 µM) was 1.05, the relative viability (Erlotinib + Olaparib; first compound 2 µM) was 0.947 and the relative viability (Erlotinib + OSI-027; first compound 0.02 µM) was 0.505. The relative viability (Erlotinib + OSI-027; first compound 0.2 µM) was 0.571, the relative viability (Erlotinib + OSI-027; first compound 0.6325 µM) was 0.412 and the relative viability (Erlotinib + OSI-027; first compound 2 µM) was 0.435. It also gave a relative viability (AT9283 + Tozasertib; first compound 0.003 µM) of 0.94, a relative viability (AT9283 + Tozasertib; first compound 0.03 µM) of 0.621 and a relative viability (AT9283 + Tozasertib; first compound 0.09487 µM) of 0.294. It also gave a relative viability (AT9283 + Tozasertib; first compound 0.3 µM) of 0.321.
HCC-78 was tested, and the relative viability (AT9283 + Foretinib; first compound 0.003 µM) was 0.5, the relative viability (AT9283 + Foretinib; first compound 0.03 µM) was 0.485 and the relative viability (AT9283 + Foretinib; first compound 0.09487 µM) was 0.331. The relative viability (AT9283 + Foretinib; first compound 0.3 µM) was 0.305, the relative viability (Erlotinib + Olaparib; first compound 0.02 µM) was 0.877 and the relative viability (Erlotinib + Olaparib; first compound 0.2 µM) was 0.634. The relative viability (Erlotinib + Olaparib; first compound 2 µM) was 0.728, the relative viability (Erlotinib + OSI-027; first compound 0.02 µM) was 0.333 and the relative viability (Erlotinib + OSI-027; first compound 0.2 µM) was 0.359. For the same cell line, the relative viability (Erlotinib + OSI-027; first compound 0.6325 µM) was 0.379, the relative viability (Erlotinib + OSI-027; first compound 2 µM) was 0.281 and the relative viability (AT9283 + Tozasertib; first compound 0.003 µM) was 0.501. The relative viability (AT9283 + Tozasertib; first compound 0.03 µM) was 0.354, the relative viability (AT9283 + Tozasertib; first compound 0.09487 µM) was 0.267 and the relative viability (AT9283 + Tozasertib; first compound 0.3 µM) was 0.291.
In the case of NCI-H1299, the relative viability (AT9283 + Foretinib; first compound 0.003 µM) is reported as 1.13, the relative viability (AT9283 + Foretinib; first compound 0.03 µM) is reported as 0.541 and the relative viability (AT9283 + Foretinib; first compound 0.09487 µM) is reported as 0.415. It also gave a relative viability (AT9283 + Foretinib; first compound 0.3 µM) of 0.373, a relative viability (Erlotinib + Olaparib; first compound 0.02 µM) of 0.988 and a relative viability (Erlotinib + Olaparib; first compound 0.2 µM) of 1.01. For the same cell line, the relative viability (Erlotinib + Olaparib; first compound 0.6325 µM) was 0.959 and the relative viability (Erlotinib + Olaparib; first compound 2 µM) was 1.
